For 8 compounds, IC50, Kd and DC50 results are on record in ChEMBL document CHEMBL6092131, “Synthesis, SAR, and application of JQ1 analogs as PROTACs for cancer therapy” (Bioorg Med Chem, 2024).

For experiment [1], the system named is MDA-MB-231. The experiment is described as follows: Antiproliferative activity against human MDA-MB-231 cells assessed as reduction in cell viability incubated for 72 hrs by MTT assay. Format: functional, cell-based. To be noted: MDA-MB-231, 72 h. (In general: Formazan colour is commonly taken as a measure of viable cells.)
Experiment [2] deals with LNCaP. The experiment is described as follows: Antiproliferative activity against human LNCaP cells assessed as inhibition of cell viability incubated for 48 hrs by CellTiter-Glo assay. Format: functional, cell-based.
Experiment [3] can be described thus: Cytotoxicity against human HAP1 cells assessed as reduction in cell viability measured for 24 hrs by SRB assay. Type of experiment: functional, cell-based. To be noted: HAP1, 24 h.
Experiment [4] concerns the target Bromodomain-containing protein 4 (Homo sapiens, UniProt O60885). The experiment is described as follows: Binding affinity to BRD4 BD2 (unknown origin) assessed as dissociation constant by SPR assay. For orientation: In SPR one partner is held on a chip, and binding of the other changes the refractive index at the surface.
In experiment [5] the target is Protein cereblon/CREB-binding protein (Homo sapiens, UniProt Q92793+Q96SW2). The experiment is described as follows: PROTAC activity at CBP/CRBN in human VCaP cells assessed as protein degradation incubated for 24 hrs by Western blot analysis. Type of experiment: cell-based. (In general: In western blotting, separated proteins are transferred to a membrane and probed.)
Protein cereblon/CREB-binding protein, sequence (Q92793 whole entry): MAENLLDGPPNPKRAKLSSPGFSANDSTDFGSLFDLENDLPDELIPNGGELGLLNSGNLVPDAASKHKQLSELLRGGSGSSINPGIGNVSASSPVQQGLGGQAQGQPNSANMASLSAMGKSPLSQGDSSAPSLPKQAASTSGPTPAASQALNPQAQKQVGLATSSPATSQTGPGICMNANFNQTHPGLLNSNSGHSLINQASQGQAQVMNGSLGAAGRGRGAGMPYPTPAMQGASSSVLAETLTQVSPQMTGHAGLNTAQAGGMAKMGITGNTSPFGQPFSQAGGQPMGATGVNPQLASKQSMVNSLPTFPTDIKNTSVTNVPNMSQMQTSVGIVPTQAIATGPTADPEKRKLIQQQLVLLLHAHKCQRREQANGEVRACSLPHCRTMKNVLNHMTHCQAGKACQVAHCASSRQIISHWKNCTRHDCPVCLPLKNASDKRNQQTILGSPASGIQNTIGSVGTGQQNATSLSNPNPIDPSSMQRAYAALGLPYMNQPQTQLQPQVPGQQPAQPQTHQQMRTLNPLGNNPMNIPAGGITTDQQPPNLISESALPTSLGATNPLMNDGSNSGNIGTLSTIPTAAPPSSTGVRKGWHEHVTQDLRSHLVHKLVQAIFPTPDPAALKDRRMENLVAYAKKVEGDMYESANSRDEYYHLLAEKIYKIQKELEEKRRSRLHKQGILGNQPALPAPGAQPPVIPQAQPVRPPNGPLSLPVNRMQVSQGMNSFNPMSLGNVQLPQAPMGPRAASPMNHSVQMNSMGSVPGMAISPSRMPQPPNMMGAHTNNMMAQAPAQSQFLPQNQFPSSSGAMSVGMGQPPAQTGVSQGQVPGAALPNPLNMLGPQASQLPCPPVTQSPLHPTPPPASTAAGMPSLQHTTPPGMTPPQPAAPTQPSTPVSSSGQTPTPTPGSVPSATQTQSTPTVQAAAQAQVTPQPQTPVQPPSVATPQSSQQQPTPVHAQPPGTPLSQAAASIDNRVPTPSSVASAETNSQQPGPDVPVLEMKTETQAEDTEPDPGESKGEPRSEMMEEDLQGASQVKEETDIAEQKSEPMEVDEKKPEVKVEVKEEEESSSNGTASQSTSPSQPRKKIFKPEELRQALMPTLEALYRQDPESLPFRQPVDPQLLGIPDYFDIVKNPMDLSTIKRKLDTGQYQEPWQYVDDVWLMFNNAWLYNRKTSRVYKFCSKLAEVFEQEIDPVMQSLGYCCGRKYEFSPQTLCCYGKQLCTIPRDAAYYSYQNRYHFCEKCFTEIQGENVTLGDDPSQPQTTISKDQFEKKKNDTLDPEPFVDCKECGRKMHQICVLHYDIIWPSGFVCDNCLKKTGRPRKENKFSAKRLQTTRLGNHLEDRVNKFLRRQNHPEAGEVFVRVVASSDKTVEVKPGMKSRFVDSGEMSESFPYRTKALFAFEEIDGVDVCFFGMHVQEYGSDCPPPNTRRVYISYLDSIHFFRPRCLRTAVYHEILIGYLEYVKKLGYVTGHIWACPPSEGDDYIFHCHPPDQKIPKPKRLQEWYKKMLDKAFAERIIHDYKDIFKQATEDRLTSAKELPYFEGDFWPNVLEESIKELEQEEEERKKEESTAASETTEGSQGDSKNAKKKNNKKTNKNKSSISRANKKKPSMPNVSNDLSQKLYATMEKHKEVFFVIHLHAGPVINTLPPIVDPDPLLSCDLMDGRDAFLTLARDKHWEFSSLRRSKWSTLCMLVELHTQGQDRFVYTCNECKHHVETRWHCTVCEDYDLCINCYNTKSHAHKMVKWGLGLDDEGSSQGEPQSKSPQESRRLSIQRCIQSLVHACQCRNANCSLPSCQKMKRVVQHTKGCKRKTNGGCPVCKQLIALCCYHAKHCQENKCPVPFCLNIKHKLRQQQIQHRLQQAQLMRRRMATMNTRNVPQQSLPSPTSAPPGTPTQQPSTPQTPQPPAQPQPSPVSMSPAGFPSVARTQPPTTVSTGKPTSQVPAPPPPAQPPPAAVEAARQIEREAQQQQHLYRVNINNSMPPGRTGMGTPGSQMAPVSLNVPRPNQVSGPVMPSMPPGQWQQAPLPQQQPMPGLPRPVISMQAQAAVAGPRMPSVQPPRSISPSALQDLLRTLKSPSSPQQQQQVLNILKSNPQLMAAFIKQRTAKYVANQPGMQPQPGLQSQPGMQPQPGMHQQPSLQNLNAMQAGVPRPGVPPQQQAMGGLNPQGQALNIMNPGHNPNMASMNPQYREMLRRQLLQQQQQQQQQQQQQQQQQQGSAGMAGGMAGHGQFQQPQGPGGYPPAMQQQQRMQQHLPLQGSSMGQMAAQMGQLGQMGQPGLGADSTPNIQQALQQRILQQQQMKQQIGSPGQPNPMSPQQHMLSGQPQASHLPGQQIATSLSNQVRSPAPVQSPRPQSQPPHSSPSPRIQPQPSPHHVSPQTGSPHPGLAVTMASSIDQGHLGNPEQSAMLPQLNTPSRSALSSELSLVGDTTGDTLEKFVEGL
Protein cereblon/CREB-binding protein, sequence (Q96SW2 whole entry): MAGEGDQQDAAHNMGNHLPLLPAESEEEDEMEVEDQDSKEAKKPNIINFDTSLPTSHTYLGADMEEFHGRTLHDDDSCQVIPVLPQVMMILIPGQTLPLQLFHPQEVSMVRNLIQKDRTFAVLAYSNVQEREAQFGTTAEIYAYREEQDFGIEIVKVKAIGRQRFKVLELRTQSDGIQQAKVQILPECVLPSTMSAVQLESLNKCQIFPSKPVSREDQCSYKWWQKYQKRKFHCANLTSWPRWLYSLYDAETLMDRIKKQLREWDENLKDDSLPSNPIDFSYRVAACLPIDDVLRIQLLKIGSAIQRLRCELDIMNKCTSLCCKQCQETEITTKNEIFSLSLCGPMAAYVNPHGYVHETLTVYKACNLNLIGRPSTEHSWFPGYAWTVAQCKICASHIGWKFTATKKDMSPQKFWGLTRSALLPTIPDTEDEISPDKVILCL

Experiment [6] deals with T1, Protein cereblon/Bromodomain-containing protein 4 (Homo sapiens, UniProt O60885+Q96SW2). The experiment is described as follows: PROTAC activity at CRBN/BRD4 in human CA46 cells assessed as protein degradation incubated for 6 hrs by Western blot analysis. Type of experiment: cell-based.
T1 sequence (Q96SW2 whole entry, looked up, other chains not shown): as the sequence (Q96SW2 whole entry) above
In experiment [7] the target is T1, Protein cereblon/Bromodomain-containing protein 4. The experiment is described as follows: PROTAC activity at CRBN/BRD4 in human NAMALVA cells assessed as protein degradation incubated for 6 hrs by Western blot analysis. Format: cell-based.
A short description of experiment [8]: cells. To be noted: Homo sapiens, Triple-negative breast cancer cell.
Description: Antiproliferative activity against human Triple-negative breast cancer cell
Experiment [9] concerns BT-549. The experiment is described as follows: Antiproliferative activity against human BT-549 cells assessed as reduction in cell viability. Type of experiment: functional, cell-based.
The target in experiment [10] is von Hippel-Lindau disease tumor suppressor/Bromodomain-containing protein 4 (Homo sapiens, UniProt O60885+P40337). The experiment is described as follows: PROTAC activity at VHL/BRD4 in human HeLa cells assessed as protein degradation of BRD4 incubated for 24 hrs by Western blot analysis. Format: cell-based.
von Hippel-Lindau disease tumor suppressor/Bromodomain-containing protein 4, sequence (P40337 whole entry, looked up, other chains not shown): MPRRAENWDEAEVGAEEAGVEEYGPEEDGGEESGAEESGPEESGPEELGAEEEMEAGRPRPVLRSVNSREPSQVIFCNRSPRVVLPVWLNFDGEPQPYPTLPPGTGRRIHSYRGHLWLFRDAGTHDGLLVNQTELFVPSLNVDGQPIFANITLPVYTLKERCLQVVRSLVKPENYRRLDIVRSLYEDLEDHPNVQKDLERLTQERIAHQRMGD
Experiment [11] relates to MV4-11. The experiment is described as follows: Cytotoxicity against human MV4-11 cells assessed as reduction in cell viability incubated for 72 hrs by cell titer glo assay. Format: functional, cell-based. To be noted: MV4-11, 72 h.

What is called IC50 is the concentration needed to halve the response being measured. For the compound `Cc1sc2c(c1C)C(c1ccc(Cl)cc1)=N[C@@H](CC(=O)NCCCCOc1ccc(Oc3ccc(N(Cc4ccccc4)C(=O)CCl)cc3)cc1)c1nnc(C)n1-2`, the IC50 in [1] stood at 540 nM.
For `CN[C@@H](C)C(=O)N[C@H](C(=O)N1CCC[C@H]1c1nc(C(=O)c2cccc(OCCOCCOCCOCCNC(=O)C[C@@H]3N=C(c4ccc(Cl)cc4)c4c(sc(C)c4C)-n4c(C)nnc43)c2)cs1)C1CCCCC1`, in [2], the IC50 was 77 nM.
For `Cc1sc2c(c1C)C(c1ccc(Cl)cc1)=N[C@@H](CC(=O)NCCCCOc1ccc(C3CC(c4ccc(Br)cc4)=NN3C(=O)CCl)cc1)c1nnc(C)n1-2` (stereo partly specified), the IC50 in [3] stood at 470 nM.
What is called Kd is the free concentration of one partner at which half of the binding sites on the other are occupied at equilibrium, for simple one-to-one binding. In the case of `CC(=O)N[C@H](C(=O)N1C[C@H](O)C[C@H]1C(=O)NCc1ccc(-c2scnc2C)cc1)C(C)(C)SCCCCCCNC(=O)C[C@@H]1N=C(c2ccc(Cl)cc2)c2c(sc(C)c2C)-n2c(C)nnc21`, in experiment [4], the dissociation constant Kd is 4.4 nM.
As a reminder, the DC50 is the midpoint of the concentration-degradation curve. `Cc1ncsc1-c1ccc([C@H](C)NC(=O)[C@@H]2C[C@@H](O)CN2C(=O)[C@@H](NC(=O)COCCCOCCNC(=O)C[C@@H]2N=C(c3ccc(Cl)cc3)c3c(sc(C)c3C)-n3c(C)nnc32)C(C)(C)C)cc1`: the DC50 in experiment [5] amounted to 5 nM.
Regarding `Cc1sc2c(c1C)C(c1ccc(Cl)cc1)=N[C@@H](CC(=O)Nc1ccc(OCCOCCOCCOCCCc3cccc4c3C(=O)N(C3CCC(=O)NC3=O)C4=O)cc1)c1nnc(C)n1-2` (stereo partly specified), the DC50 in experiment [6] and in experiment [7] was under 1 nM throughout.
On to `Cc1sc2c(c1C)C(c1ccc(Cl)cc1)=N[C@@H](CC(=O)OC(C)(C)C)c1nnc(C)n1-2`, for which the results for the IC50 in experiment [8] and in experiment [9] were 9900 nM and 5200 nM, respectively.
Take `Cc1ncsc1-c1ccc2c(c1)OCCOCCOC[C@@H](NC(=O)C[C@@H]1N=C(c3ccc(Cl)cc3)c3c(sc(C)c3C)-n3c(C)nnc31)COCCOCCOCC(=O)N[C@@H](C(C)(C)C)C(=O)N1C[C@H](O)C[C@H]1C(=O)NC2`: in experiment [10], the DC50 was 640 nM. Further, in experiment [11], the IC50 stood at 300 nM.
